Consider 2 compounds from patent US8344003B2, “2-pyridinecarboxamide derivatives” (MSD K. K., priority 2003, dated 2013).

The target in the assay is T1, recombinant human liver GK (Homo sapiens, UniProt P35557).
T1 construct: made in house; host or cells: E. coli
T1 sequence (P35557 1-466 isoform P35557-2): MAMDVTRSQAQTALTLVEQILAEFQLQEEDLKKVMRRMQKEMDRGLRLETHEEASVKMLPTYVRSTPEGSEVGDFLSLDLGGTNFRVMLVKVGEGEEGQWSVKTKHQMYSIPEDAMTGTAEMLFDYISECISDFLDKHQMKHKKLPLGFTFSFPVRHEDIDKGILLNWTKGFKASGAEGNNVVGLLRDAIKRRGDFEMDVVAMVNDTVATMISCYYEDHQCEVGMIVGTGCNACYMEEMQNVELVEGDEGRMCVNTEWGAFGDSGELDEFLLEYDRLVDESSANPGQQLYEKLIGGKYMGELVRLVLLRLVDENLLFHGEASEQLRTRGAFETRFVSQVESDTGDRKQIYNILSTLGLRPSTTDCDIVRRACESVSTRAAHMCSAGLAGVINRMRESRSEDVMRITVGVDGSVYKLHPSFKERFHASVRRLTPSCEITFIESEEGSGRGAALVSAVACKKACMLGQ
Put plainly: glucokinase (GK) activation assay, Thio-NADH generation via reporter enzyme G6PDH, absorbance at 405 nm. Format: biochemical. To be noted: final glucose concentration 2.5 mM, 30° C.; for EC50: GK activation; for Emax: OD value of DMSO control regarded as 100%. Here is the method:
The glucokinase activity can be determined without directly measuring glucose-6-phosphate by measuring the amount of Thio-NADH generated during the production of phosphogluconolactone from glucose-6-phosphate by a reporter enzyme glucose-6-phosphate dehydrogenase. Thus, the degree of the glucokinase activity can be determined.
The recombinant human liver GK used in this assay expressed as a FLAG fusion protein in E. coli, was purified on […] M2 AFFINITY GEL (Sigma).
Assay was carried out at 30° C. in a 96-well plate. In the plate was distributed 69 μl each of assay buffer (25 mM Hepes Buffer: pH=7.2, 2 mM MgCl2, 1 mM ATP, 0.5 mM TNAD, 1 mM dithiothreitol), to which was added 1 μl of a DMSO solution of the compound or DMSO as control. Then, 20 μl of pre-ice-cooled enzyme mixture (FLAG-GK, 20 U/ml G6PDH) was distributed thereto, to which was added 10 μl of 25 mM glucose as substrate to initiate the reaction (final glucose concentration=2.5 mM).
FLAG-GK was added so that the increase of absorbance after 5 minutes fell between 0.05 to 0.1 in the presence of 1% DMSO.
The OD values of the respective compounds to be evaluated were measured in the respective concentrations, wherein the OD value of DMSO as control was regarded as 100%. From the OD values at the respective concentrations, Emax (%) and EC50 (μM) were calculated and used as indicators of the GK activation capability of the compounds. According to the above assay, the GK activation capability of the compounds in the present invention was determined.

For orientation: EC50 means the midpoint of the concentration-response curve. Broadly, the Emax is the maximal effect, on the per cent scale that the assay sets. Turning to `COc1ccc(Sc2ccc(Sc3nnc[nH]3)nc2C(=O)Nc2nccs2)cc1` [Production Example 1], the half-maximal effective concentration (EC50) worked out at 50 nM and the Emax was 997%.

Consider `Cc1ccc(Sc2ccc(Sc3nnc[nH]3)nc2C(=O)Nc2nccs2)cn1` [Production Example 30, 3-(6-methyl-pyridine-3-yl-sulfanyl)-6-(4H-[1,2,4]triazole-3-yl-sulfanyl)-N-(thiazole-2-yl)-2-pyridine carboxamide], for which the concentration for a half-maximal effect (EC50) turned out to be 120 nM and the Emax was found to be 818%.
